Assay results: patent US20150305333A1, “USE OF GLUCOSAMINE AMIDES AS PLANT GROWTH AND YIELD ENHANCERS” (PIONEER HI-BRED INTERNATIONAL, INC., priority 2012, published 2015)

Test system: AC Metcalf spring barley (Hordeum vulgare)
Assay: Spring barley field trial 2011: emergence, vigor, tillering
Assay type: in vivo
Conditions: for Barley Crop Vigor (1-5 scale): vigor scale of Example 3; for Barley Plant Tillers: 24 DAP
Description: A spring barley field trial was conducted to evaluate the effects of NPG on plant emergence and vigor in AC Metcalf spring barley (Hordeum vulgare) planted near Wetaskiwin, Alberta, Canada, in 2011. Seed treatments included an Untreated Control, 10^−7 M NPG seed coating, 10^−7 M NPG seed coating followed by an NPG foliar treatment (10^−7 M NPG+Foliar), 10^−6 M natural LCO, and 10^−6 M commercial LCO plus a commercial rhizobia inoculant (LCO+RI) applied as a seed coating. The natural LCO was provided by Dr. Don Smith (McGill University, Montreal, Canada) and prepared as described in Example 2.
Seed coating was performed by injecting 7 mL of aqueous NPG solution per 100 g barley seed into the coating machine followed by treatment and drying. […] Foliar NPG was applied 47 days after planting. Plants were sprayed using a four-nozzle hollow-cone boom and CO2 propellant at a speed of 10.8 km/h and 40 psi, with a mix size of 1.0 L and spray rate of 110 L/ha water volume. Seeds designated for use as the Untreated Control also received the fungicide maintenance treatment.
Treated seeds were sent to the DuPont Wetaskiwin, Alberta, Canada, Research Station and planted on May 19th in a loam composed of 29% sand, 46% silt and 25% clay and 4.8% organic matter. […] Barley was planted at a rate of 100 kg seeds/ha to a depth of 2.5 cm. Weeds were controlled using 60 grams ai/ha pinoxaden, 30 grams/ha thifensulfuron methyl, and 280 grams ai/ha 4-chloro-2-methylphenox acetic acid, 2-ethylhexyl ester. Adigor surfactant was used at a rate of 700 ml/hectare. All of the products used are considered industry standards and representative of what is used in commercial production.
The trial was conducted using a randomized complete block design with a plot size of 2 m by 6 m with 22.9 cm row spacing, 3.3 cm plant spacing and four replications. Height and yield data was not collected in this trial due to a large hailstorm on Jul. 18, 2011.
Crop vigor was observed 11 and 14 days DAP using the vigor scale described in Example 3 (Table 12).

[1] = 10^−7M seed coating + Foliar, 11 DAP
[2] = 10^−7M seed coating + Foliar, 14 DAP

CCCCCCC=CCCCCCCCC(=O)NC1C(OC)OC(CO)C(O)C1O [NPG, Methyl 2-deoxy-2-N-(hexadece-9,10-cis-eneoyl)-β-D-glucopyranoside]
Barley Crop Emergence [1]: 25a plants/m row | Barley Crop Vigor (1-5 scale) [1]: 3a | Barley Crop Emergence [2]: 31.8a plants/m row | Barley Crop Vigor (1-5 scale) [2]: 4a | Barley Plant Tillers (10^−7M seed coating + Foliar): 95a % | Barley Crop Emergence (10^−7M seed coating, 11 DAP): 22.5a plants/m row | Barley Crop Vigor (1-5 scale) (10^−7M seed coating, 11 DAP): 3a | Barley Crop Emergence (10^−7M seed coating, 14 DAP): 27.4a plants/m row | Barley Crop Vigor (1-5 scale) (10^−7M seed coating, 14 DAP): 4a | Barley Plant Tillers (10^−7M seed coating): 83a %
